These results are taken from ChEMBL document CHEMBL1140858, “Ceramicines B-D, new antiplasmodial limonoids from Chisocheton ceramicus” (Bioorg Med Chem, 2009).

Converted amounts (≈) assume the structure as drawn.

The IC50 is the midpoint of a concentration-inhibition curve. High values mean lower potency, low ones higher potency.

The subject of one test is Plasmodium falciparum. Kind of test: Antiplasmodial activity against Plasmodium falciparum 3D7 by Giemsa staining. In kind it is functional, organism-based.
The test system of another test is P388. Kind of test: Cytotoxicity against mouse P388 cells by MTT assay. Type of test: cell-based. (Tetrazolium dyes change colour on reduction, which living cells bring about.)

For `CC(=O)O[C@@H]1[C@H]2[C@@H](O)C=CC(=O)[C@]2(C)[C@H]2CC[C@]3(C)C(=CC[C@H]3c3ccoc3)[C@]2(C)[C@@H]1O` [CERAMICINES A], in the test with Plasmodium falciparum, inhibition was half-maximal at 44.2 µg/mL (≈ 100 µM) (IC50).

As for `C[C@]12C3=CC[C@@H](c4ccoc4)[C@]3(C)CC[C@@H]1[C@@]1(C)C(=O)C=C[C@@]3(C)CO[C@@H]([C@H]2O)[C@H]13` [CERAMICINES B], the IC50 with Plasmodium falciparum came to 0.23 µg/mL (≈ 0.563 µM); in the test on P388, 15 µg/mL (≈ 36.7 µM).

For `C=C(C)C(=O)O[C@H]1C[C@H]2[C@](C)(C3=CC[C@@H](c4ccoc4)[C@@]31C)[C@H](O)[C@@H]1OC[C@]3(C)C=CC(=O)[C@@]2(C)[C@@H]13` [CERAMICINES C], the IC50 was found to be 2.38 µg/mL (≈ 4.83 µM) in the test on Plasmodium falciparum and 5.5 µg/mL (≈ 11.2 µM) in the test with P388.

Regarding `C[C@]12C3=CC[C@@H](C4=CCOC4=O)[C@]3(C)CC[C@@H]1[C@@]1(C)C(=O)C=C[C@@]3(C)CO[C@@H]([C@H]2O)[C@H]13` [CERAMICINES D], the IC50 in the test with Plasmodium falciparum amounted to 2.15 µg/mL (≈ 5.06 µM); in the test on P388 it was 27 µg/mL (≈ 63.6 µM).
